Test results as given in ChEMBL document CHEMBL5096164, “In Vivo Profiling of a Natural Alkaloid, Anatabine, in Rodents: Pharmacokinetics and Anti-Inflammatory Efficacy” (J Nat Prod, 2021).

Key:
[1] = in vivo; conditions: rat, plasma
[2] = Half life in mouse plasma
[3] = test system: Mus musculus; test: Antiinflammatory activity in LPS induced mouse model assessed as reduction in tumor necrosis factor alpha level in plasma at 1 mg/kg, po preincubated for 1 hr followed by LPS stimulation and measured after 2 hrs by ELISA method relative to control; type: functional; parameters: scale not given: the % may be the effect or the level left; conditions: time 3 hrs
[4] = test system: Mus musculus; test: Antiinflammatory activity in LPS induced mouse model assessed as reduction in IL-6 level in plasma at 1 mg/kg, po preincubated for 1 hr followed by LPS stimulation and measured after 2 hrs by ELISA method relative to control; type: functional; parameters: scale not given: the % may be the effect or the level left; conditions: time 3 hrs

For `CN1CCC[C@H]1c1cccnc1` [NICOTINE], the half-life [1] was 54 min and the half-life [2] was 6 min.
For `C[C@@H]1C[C@H]2[C@@H]3CCC4=CC(=O)C=C[C@]4(C)[C@@]3(F)[C@@H](O)C[C@]2(C)[C@@]1(O)C(=O)CO` [DEXAMETHASONE], the Activity [3] was 72.1% and the Activity [4] was 46.9%.
